In patent publication US20080009418A1, “Selective Inhibitors” (Alchemia LTD., priority 2004, published 2008):

Legend:
Mouse urotensin (mUR2) = molecular target: T1, Mouse urotensin (mUR2) (Mus musculus, UniProt Q8VIH9); experiment: Radioligand binding, mouse urotensin mUR2 membranes, FlashPlate, [125I]-Urotensin II; conditions: compound at 10 μM; for A11 radioligand binding inhibition: mouse urotensin mUR2 membranes; for A11: inhibition of radioligand binding: mouse mUR2 membranes
T1 construct: purchased Perkin Elmer Biosignal
T1 sequence (Q8VIH9 1-385): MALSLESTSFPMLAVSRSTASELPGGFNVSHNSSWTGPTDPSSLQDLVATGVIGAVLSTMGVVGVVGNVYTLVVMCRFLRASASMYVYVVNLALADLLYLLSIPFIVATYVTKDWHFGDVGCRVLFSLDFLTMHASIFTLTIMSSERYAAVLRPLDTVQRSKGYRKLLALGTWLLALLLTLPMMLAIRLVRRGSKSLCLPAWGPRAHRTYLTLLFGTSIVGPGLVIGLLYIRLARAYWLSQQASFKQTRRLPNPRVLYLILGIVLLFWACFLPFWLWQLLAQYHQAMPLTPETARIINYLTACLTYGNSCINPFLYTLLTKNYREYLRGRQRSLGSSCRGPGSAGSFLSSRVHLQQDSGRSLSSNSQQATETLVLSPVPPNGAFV
How it was run: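 Cloned mouse urotensin (mUR2) receptor membranes from Perkin Elmer Biosignal were immobilized in FlashPlate microplates using a proprietary coating. Each well got 19.5 μl buffer, then 0.5 μl of DMSO, reference ligand, or compound. Adding 5 μl of [125I]-Urotensin II, diluted to 5× final concentration in binding buffer, started binding. Plates were sealed with TopSeal-A and incubated 1 hour at room temperature in the dark. Wells were counted for 30 seconds each on a TopCount after a 60-second delay, and percentage inhibition was calculated.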

Human κ-Opioid (KOP) = molecular target: T2, Human κ-Opioid (KOP) (Homo sapiens, UniProt P41145); experiment: Radioligand binding, human κ-opioid (KOP) membranes, filtration, [3H]-Diprenorphine; conditions: compound at 10 μM; for A2 radioligand binding inhibition: human κ-opioid (KOP) membranes; for A2: inhibition of radioligand binding: human KOP membranes
T2 construct: purchased Perkin Elmer Biosignal
How it was run: (§1)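 Filtration binding on cloned human receptor membranes (1 Unit/well), [125I]-Substance P for NK1 and [3H]-Diprenorphine for KOP, 1 h at room temperature. Filters PEI-presoaked, washed with cold 50 mM Tris-HCl pH 7.4, counted by scintillation; percent inhibition calculated, reference ligand defining non-specific binding.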

Human neurokinin (NK1) = molecular target: T3, Human neurokinin (NK1) (Homo sapiens, UniProt P25103); experiment: Radioligand binding, human neurokinin NK1 membranes, filtration, [125I]-Substance P; conditions: compound at 10 μM; for A8 radioligand binding inhibition: human neurokinin NK1 membranes; for A8: inhibition of radioligand binding: human NK1 membranes
T3 construct: purchased Perkin Elmer Biosignal
How it was run: as §1

Human melanocortin (MC5) = molecular target: T4, Human melanocortin (MC5) (Homo sapiens, UniProt P33032); experiment: Radioligand binding, human melanocortin MC5 membranes, FlashPlate, [125I]-NDP-αMSH; conditions: compound at 10 μM; for A5 radioligand binding inhibition: human melanocortin MC5 membranes; for A5: inhibition of radioligand binding: human MC5 membranes
T4 construct: purchased Perkin Elmer Biosignal
How it was run: (§2)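 Cloned human receptor membranes were coated onto FlashPlate wells and incubated with radioligand and compound (added from a 0.5 mM DMSO daughter plate) for 1 hour at room temperature in the dark. Scintillation counting gave percent inhibition, with DMSO defining total and reference ligand defining non-specific binding.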

Human Melanocortin (MC3) = molecular target: T5, Human Melanocortin (MC3) (Homo sapiens, UniProt P41968); experiment: Radioligand binding, human melanocortin MC3 membranes, FlashPlate, [125I]-NDP-αMSH; conditions: compound at 10 μM; for A3 radioligand binding inhibition: human melanocortin MC3 membranes; for A3: inhibition of radioligand binding: human MC3 membranes
T5 construct: purchased Perkin Elmer Biosignal
How it was run: as §2

Human opioid (ORL1) = molecular target: T6, Human opioid (ORL1) (Homo sapiens, UniProt P41146); experiment: Radioligand binding, human opioid ORL1 membranes, FlashPlate, [125I]-Nociceptin; conditions: compound at 10 μM; for A10 radioligand binding inhibition / A10: inhibition of radioligand binding: human ORL1 membranes
T6 construct: purchased Perkin Elmer Biosignal
How it was run: as §2

Human Melanocortin (MC4) = molecular target: T7, Human Melanocortin (MC4) (Homo sapiens, UniProt P32245); experiment: Radioligand binding, human melanocortin MC4 membranes, FlashPlate, [125I]-NDP-αMSH; conditions: compound at 10 μM; for A4 radioligand binding inhibition: human melanocortin MC4 membranes; for A4: inhibition of radioligand binding: human MC4 membranes
T7 construct: purchased Perkin Elmer Biosignal
How it was run: as §2

[1] = molecular target: T8, Human neuropeptide Y (NPY-Y1) (Homo sapiens, UniProt P25929); experiment: Radioligand binding, human neuropeptide Y NPY-Y1 membranes, FlashPlate, [125I]-PYY; conditions: compound at 10 μM; for A9 radioligand binding inhibition / A9: inhibition of radioligand binding: human NPY-Y1 membranes
T8 construct: purchased Perkin Elmer Biosignal
T8 sequence (P25929 1-384): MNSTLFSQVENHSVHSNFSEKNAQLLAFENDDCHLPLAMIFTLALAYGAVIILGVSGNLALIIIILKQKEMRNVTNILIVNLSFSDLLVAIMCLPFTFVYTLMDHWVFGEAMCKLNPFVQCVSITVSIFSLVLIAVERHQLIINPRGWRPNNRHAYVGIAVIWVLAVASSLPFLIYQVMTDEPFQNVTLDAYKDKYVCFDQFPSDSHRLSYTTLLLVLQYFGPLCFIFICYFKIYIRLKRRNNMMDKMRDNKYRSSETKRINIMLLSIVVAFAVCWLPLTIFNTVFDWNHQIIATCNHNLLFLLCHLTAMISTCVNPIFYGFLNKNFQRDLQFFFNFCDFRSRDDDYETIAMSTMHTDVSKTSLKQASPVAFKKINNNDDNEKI
How it was run: as §2

Human μ-opioid (MOP) = molecular target: T9, Human μ-opioid (MOP) (Homo sapiens, UniProt P35372); experiment: Radioligand binding, human μ-opioid (MOP) membranes, FlashPlate, [3H]-Naloxone; conditions: compound at 10 μM; for A7 radioligand binding inhibition: human μ-opioid (MOP) membranes; for A7: inhibition of radioligand binding: human MOP membranes
T9 construct: purchased Perkin Elmer Biosignal
How it was run: as §2

Human δ-opioid (DOP) = molecular target: T10, Human δ-opioid (DOP) (Homo sapiens, UniProt P41143); experiment: Radioligand binding, human δ-opioid (DOP) membranes, FlashPlate, [3H]-Bremazocine; conditions: compound at 10 μM; for A1 radioligand binding inhibition: human δ-opioid (DOP) membranes; for A1: inhibition of radioligand binding: human DOP membranes
T10 construct: purchased Perkin Elmer Biosignal
How it was run: as §2

[2] = molecular target: T11, Human melanin-concentrating hormone (MCH1) (Homo sapiens, UniProt Q99705); experiment: Radioligand binding, human melanin-concentrating hormone MCH1 membranes, FlashPlate, [125I]-S36057; conditions: compound at 10 μM; for A6 radioligand binding inhibition: human MCH1 membranes; for A6: inhibition of radioligand binding: [125I]-S36057, human MCH1 membranes
T11 construct: purchased Perkin Elmer Biosignal
How it was run: as §2

T9 sequence (P35372 whole entry): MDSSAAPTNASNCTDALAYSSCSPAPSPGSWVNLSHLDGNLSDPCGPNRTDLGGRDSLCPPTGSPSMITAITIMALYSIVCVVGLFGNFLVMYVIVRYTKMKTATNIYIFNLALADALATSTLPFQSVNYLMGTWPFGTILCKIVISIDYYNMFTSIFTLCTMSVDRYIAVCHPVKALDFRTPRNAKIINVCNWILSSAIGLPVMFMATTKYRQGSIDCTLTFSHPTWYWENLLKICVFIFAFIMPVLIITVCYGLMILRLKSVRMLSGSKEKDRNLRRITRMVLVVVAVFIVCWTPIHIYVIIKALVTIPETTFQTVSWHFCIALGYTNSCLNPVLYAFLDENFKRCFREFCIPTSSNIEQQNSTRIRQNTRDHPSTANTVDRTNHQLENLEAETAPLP
T7 sequence (P32245 whole entry): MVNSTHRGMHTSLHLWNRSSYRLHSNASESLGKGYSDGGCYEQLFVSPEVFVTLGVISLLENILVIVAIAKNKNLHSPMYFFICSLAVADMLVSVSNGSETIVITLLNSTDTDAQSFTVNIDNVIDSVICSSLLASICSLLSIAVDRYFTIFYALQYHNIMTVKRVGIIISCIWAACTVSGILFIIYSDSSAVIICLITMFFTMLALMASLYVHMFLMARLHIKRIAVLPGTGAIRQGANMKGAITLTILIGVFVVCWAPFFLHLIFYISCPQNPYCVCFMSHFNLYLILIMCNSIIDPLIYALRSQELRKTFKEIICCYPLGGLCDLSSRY
T3 sequence (P25103 whole entry): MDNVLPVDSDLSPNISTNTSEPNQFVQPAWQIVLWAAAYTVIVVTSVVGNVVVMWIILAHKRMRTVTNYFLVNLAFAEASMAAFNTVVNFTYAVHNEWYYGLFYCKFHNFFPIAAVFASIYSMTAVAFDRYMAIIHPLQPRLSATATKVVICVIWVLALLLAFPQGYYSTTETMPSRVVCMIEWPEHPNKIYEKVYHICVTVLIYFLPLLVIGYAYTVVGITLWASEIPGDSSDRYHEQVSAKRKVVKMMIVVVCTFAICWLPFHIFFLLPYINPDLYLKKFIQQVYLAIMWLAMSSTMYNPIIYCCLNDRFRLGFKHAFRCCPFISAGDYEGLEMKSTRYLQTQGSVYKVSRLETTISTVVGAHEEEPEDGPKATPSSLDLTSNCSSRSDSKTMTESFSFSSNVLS
T11 sequence (Q99705 whole entry): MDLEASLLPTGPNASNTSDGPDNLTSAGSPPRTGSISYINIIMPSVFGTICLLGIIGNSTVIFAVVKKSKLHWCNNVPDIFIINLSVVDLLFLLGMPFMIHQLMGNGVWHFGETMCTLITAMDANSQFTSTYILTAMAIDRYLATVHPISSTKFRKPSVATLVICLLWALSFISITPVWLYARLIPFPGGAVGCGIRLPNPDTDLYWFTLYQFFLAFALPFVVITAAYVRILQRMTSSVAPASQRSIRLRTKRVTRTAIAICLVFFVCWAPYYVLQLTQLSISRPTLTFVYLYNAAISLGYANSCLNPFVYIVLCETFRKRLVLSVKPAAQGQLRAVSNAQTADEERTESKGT
T5 sequence (P41968 whole entry): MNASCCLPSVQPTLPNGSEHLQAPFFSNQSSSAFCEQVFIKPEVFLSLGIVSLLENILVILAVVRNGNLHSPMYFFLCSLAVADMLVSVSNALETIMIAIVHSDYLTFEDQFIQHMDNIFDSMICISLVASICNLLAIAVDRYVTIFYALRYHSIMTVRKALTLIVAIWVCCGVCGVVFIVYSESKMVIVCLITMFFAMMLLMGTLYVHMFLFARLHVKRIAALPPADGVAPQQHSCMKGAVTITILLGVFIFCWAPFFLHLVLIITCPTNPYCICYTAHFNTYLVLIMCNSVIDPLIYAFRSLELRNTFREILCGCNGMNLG
T6 sequence (P41146 whole entry): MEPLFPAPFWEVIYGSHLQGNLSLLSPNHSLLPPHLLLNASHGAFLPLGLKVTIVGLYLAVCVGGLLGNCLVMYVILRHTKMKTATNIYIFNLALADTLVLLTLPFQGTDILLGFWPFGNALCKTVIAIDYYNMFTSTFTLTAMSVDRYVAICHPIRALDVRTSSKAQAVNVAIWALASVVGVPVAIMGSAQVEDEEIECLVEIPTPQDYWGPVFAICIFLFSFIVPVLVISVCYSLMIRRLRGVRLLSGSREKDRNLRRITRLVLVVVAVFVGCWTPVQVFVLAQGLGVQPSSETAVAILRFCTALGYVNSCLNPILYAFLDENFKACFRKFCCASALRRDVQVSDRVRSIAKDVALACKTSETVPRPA
T2 sequence (P41145 whole entry): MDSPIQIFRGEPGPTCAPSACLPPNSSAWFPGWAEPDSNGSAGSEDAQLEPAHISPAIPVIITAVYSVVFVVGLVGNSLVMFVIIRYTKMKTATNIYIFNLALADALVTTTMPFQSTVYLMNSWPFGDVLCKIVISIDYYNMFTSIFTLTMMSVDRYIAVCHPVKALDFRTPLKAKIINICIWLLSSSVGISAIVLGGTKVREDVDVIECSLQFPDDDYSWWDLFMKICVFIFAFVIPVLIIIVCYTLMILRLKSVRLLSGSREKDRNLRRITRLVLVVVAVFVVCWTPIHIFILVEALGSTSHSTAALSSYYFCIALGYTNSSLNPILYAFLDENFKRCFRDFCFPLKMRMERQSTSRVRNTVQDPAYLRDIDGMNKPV
T10 sequence (P41143 whole entry): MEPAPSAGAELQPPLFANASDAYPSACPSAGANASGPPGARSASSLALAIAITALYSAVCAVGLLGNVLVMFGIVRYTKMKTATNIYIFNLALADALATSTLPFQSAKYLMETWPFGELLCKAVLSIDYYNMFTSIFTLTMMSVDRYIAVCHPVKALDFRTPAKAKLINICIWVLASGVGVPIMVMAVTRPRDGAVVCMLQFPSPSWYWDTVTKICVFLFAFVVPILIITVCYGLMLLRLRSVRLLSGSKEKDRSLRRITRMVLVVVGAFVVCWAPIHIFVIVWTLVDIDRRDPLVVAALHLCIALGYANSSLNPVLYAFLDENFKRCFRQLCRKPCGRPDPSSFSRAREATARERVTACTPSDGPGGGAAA
T4 sequence (P33032 whole entry): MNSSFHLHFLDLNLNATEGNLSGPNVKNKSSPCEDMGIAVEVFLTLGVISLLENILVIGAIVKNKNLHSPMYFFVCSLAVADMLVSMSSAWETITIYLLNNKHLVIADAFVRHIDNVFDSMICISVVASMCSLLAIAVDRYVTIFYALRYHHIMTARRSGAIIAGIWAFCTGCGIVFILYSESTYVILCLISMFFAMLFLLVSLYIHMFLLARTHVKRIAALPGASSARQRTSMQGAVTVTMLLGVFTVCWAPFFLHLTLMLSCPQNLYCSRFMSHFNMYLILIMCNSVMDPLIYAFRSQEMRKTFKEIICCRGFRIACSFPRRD

Compound | A11 radioligand binding inhibition (Mouse urotensin (mUR2)) | A2 radioligand binding inhibition (Human κ-Opioid (KOP)) | A8 radioligand binding inhibition (Human neurokinin (NK1)) | A5 radioligand binding inhibition (Human melanocortin (MC5)) | A3 radioligand binding inhibition (Human Melanocortin (MC3)) | A10 radioligand binding inhibition (Human opioid (ORL1)) | A4 radioligand binding inhibition (Human Melanocortin (MC4)) | A9 radioligand binding inhibition [1] | A7 radioligand binding inhibition (Human μ-opioid (MOP)) | A1 radioligand binding inhibition (Human δ-opioid (DOP)) | A11: inhibition of radioligand binding (Mouse urotensin (mUR2); [125I]-Urotensin II) | A2: inhibition of radioligand binding (Human κ-Opioid (KOP); [3H]-Diprenorphine) | A8: inhibition of radioligand binding (Human neurokinin (NK1); [125I]-Substance P) | A3: inhibition of radioligand binding (Human Melanocortin (MC3); [125I]-NDP-αMSH) | A4: inhibition of radioligand binding (Human Melanocortin (MC4); [125I]-NDP-αMSH) | A9: inhibition of radioligand binding ([1]; [125I]-PYY) | A1: inhibition of radioligand binding (Human δ-opioid (DOP); [3H]-Bremazocine) | also measured
COC[C@H]1OC(OCc2ccc(-c3ccccc3)cc2)[C@H](NC(=O)CCCNC(=N)N)[C@@H](OCc2ccccc2)[C@@H]1O (stereo partly shown) [compound 8] | − (“−” indicates less than 50% inhibition at 10 μM) | − (“−” indicates less than 50% inhibition at 10 μM) | + (“+” indicates greater than 50% inhibition at 10 μM) | − (“−” indicates less than 50% inhibition at 10 μM) | − (“−” indicates less than 50% inhibition at 10 μM) | − (“−” indicates less than 50% inhibition at 10 μM) | − (“−” indicates less than 50% inhibition at 10 μM) | − (“−” indicates less than 50% inhibition at 10 μM) | − (“−” indicates less than 50% inhibition at 10 μM) | − (“−” indicates less than 50% inhibition at 10 μM) |  |  |  |  |  |  |  | A6 radioligand binding inhibition ([2]; 10 µM): + (“+” indicates greater than 50% inhibition at 10 μM)
COC[C@H]1OC(OCc2ccc(Cl)cc2)[C@H](NC(=O)CCCNC(=N)N)[C@@H](OCc2ccc(Cl)cc2)[C@@H]1O (stereo partly shown) [compound 39] | − (“−” indicates less than 50% inhibition at 10 μM) | − (“−” indicates less than 50% inhibition at 10 μM) | + (“+” indicates greater than 50% inhibition at 10 μM) | − (“−” indicates less than 50% inhibition at 10 μM) | − (“−” indicates less than 50% inhibition at 10 μM) | − (“−” indicates less than 50% inhibition at 10 μM) | − (“−” indicates less than 50% inhibition at 10 μM) | − (“−” indicates less than 50% inhibition at 10 μM) | − (“−” indicates less than 50% inhibition at 10 μM) | − (“−” indicates less than 50% inhibition at 10 μM) |  |  |  |  |  |  |  | A6 radioligand binding inhibition [2]: + (“+” indicates greater than 50% inhibition at 10 μM)
N=C(N)NCCC(=O)NC1C(OCc2ccc(-c3ccccc3)cc2)OC(COCc2ccccc2)C(O)C1OCc1ccc(Cl)cc1 (stereo not shown) [compound 409] |  |  |  |  |  |  |  |  |  |  | − (“−” indicates less than 50% inhibition at 10 μM) | − (“−” indicates less than 50% inhibition at 10 μM) | + (“+” indicates greater than 50% inhibition at 10 μM) | + (“+” indicates greater than 50% inhibition at 10 μM) | + (“+” indicates greater than 50% inhibition at 10 μM) | − (“−” indicates less than 50% inhibition at 10 μM) | − (“−” indicates less than 50% inhibition at 10 μM) | A5: inhibition of radioligand binding (Human melanocortin (MC5); [125I]-NDP-αMSH): + (“+” indicates greater than 50% inhibition at 10 μM); A10: inhibition of radioligand binding (Human opioid (ORL1); [125I]-Nociceptin): + (“+” indicates greater than 50% inhibition at 10 μM); A7: inhibition of radioligand binding (Human μ-opioid (MOP); [3H]-Naloxone): − (“−” indicates less than 50% inhibition at 10 μM); A6: inhibition of radioligand binding [2]: + (“+” indicates greater than 50% inhibition at 10 μM)
CO[C@H]1[C@H](O)[C@@H](COCc2ccc3ccccc3c2)OC(OCc2cccc(O)c2)[C@@H]1NC(=O)CNC(=N)N (stereo partly shown) [compound 165] |  |  |  |  |  |  |  |  |  |  |  |  |  |  |  |  |  | A11 radioligand binding, percentage inhibition (Mouse urotensin (mUR2); [125I]-Urotensin II): − (“−” indicates less than 50% inhibition at 10 μM); A2 radioligand binding, percentage inhibition (Human κ-Opioid (KOP); [3H]-Diprenorphine): − (“−” indicates less than 50% inhibition at 10 μM); A8 radioligand binding, percentage inhibition (Human neurokinin (NK1); [125I]-Substance P): + (“+” indicates greater than 50% inhibition at 10 μM); A5 radioligand binding, percentage inhibition (Human melanocortin (MC5); [125I]-NDP-αMSH): − (“−” indicates less than 50% inhibition at 10 μM); A3 radioligand binding, percentage inhibition (Human Melanocortin (MC3); [125I]-NDP-αMSH): − (“−” indicates less than 50% inhibition at 10 μM); A10 radioligand binding, percentage inhibition (Human opioid (ORL1); [125I]-Nociceptin): − (“−” indicates less than 50% inhibition at 10 μM); A4 radioligand binding, percentage inhibition (Human Melanocortin (MC4); [125I]-NDP-αMSH): − (“−” indicates less than 50% inhibition at 10 μM); A9 radioligand binding, percentage inhibition ([1]; [125I]-PYY): − (“−” indicates less than 50% inhibition at 10 μM); A7 radioligand binding, percentage inhibition (Human μ-opioid (MOP); [3H]-Naloxone): − (“−” indicates less than 50% inhibition at 10 μM); A1 radioligand binding, percentage inhibition (Human δ-opioid (DOP); [3H]-Bremazocine): − (“−” indicates less than 50% inhibition at 10 μM); A6 radioligand binding, percentage inhibition ([2]; [125I]-S36057): − (“−” indicates less than 50% inhibition at 10 μM)
NCCC(=O)NC1C(OCc2ccc(Cl)cc2)OC(COCc2ccccc2)C(O)C1OCc1ccc(Cl)cc1 (single isomer, unassigned) [compound 473] |  |  |  |  |  |  |  |  |  |  | − (“−” indicates less than 50% inhibition at 10 μM) | − (“−” indicates less than 50% inhibition at 10 μM) | + (“+” indicates greater than 50% inhibition at 10 μM) | − (“−” indicates less than 50% inhibition at 10 μM) | − (“−” indicates less than 50% inhibition at 10 μM) | − (“−” indicates less than 50% inhibition at 10 μM) | − (“−” indicates less than 50% inhibition at 10 μM) | A5: inhibition of radioligand binding (Human melanocortin (MC5); [125I]-NDP-αMSH, 10 µM): + (“+” indicates greater than 50% inhibition at 10 μM); A10: inhibition of radioligand binding (Human opioid (ORL1); [125I]-Nociceptin, 10 µM): − (“−” indicates less than 50% inhibition at 10 μM); A7: inhibition of radioligand binding (Human μ-opioid (MOP); [3H]-Naloxone, 10 µM): + (“+” indicates greater than 50% inhibition at 10 μM); A6: inhibition of radioligand binding ([2]; 10 µM): + (“+” indicates greater than 50% inhibition at 10 μM)
